Molecules are shown by their SMILES.

Assay [1] addresses T1, Bromodomain-containing protein 2 (Homo sapiens, UniProt P25440). The experiment in a line: Binding affinity to BDR2- BD2 (unknown origin) by TR-FRET assay. Background: Time-resolved FRET reads energy transfer from a long-lived donor to a nearby acceptor.
The species named for assay [2] is Homo sapiens. The experiment in a line: Selectivity ratio of Kd for BRD2 BD1 (unknown origin) to Kd for BRD2 BD2 (unknown origin).
The species entered for assay [3] is Homo sapiens. The experiment in a line: Selectivity ratio of Kd for BRD4 BD1 (unknown origin) to Kd for BRD4 BD2 (unknown origin).
In assay [4] the target is T1, Bromodomain-containing protein 2. The experiment in a line: Binding affinity to BDR2-BD1 (unknown origin) by TR-FRET assay.
For assay [5], the species on record is Homo sapiens. The experiment in a line: Selectivity ratio of Ki for human BRD4 BD2 to Ki for BRD4 BD1.
The target of assay [6] is T2, Bromodomain-containing protein 4 (Homo sapiens, UniProt O60885). The experiment in a line: Binding affinity to human BRD4 BD2 assessed as inhibition constant incubated for 1 hr by competitive binding assay.
Assay [7] addresses T2, Bromodomain-containing protein 4. The experiment in a line: Binding affinity to human BRD4 BD1 assessed as inhibition constant incubated for 1 hr by competitive binding assay.
Assay [8] is filed under the species Homo sapiens. The experiment in a line: Selectivity ratio of IC50 for BRD4 BD2 (unknown origin) to IC50 for BRD4 BD1 (unknown origin).
The target in assay [9] is Mitogen-activated protein kinase 14 (Homo sapiens, UniProt Q16539).
Description: Binding affinity to p38 alpha (unknown origin) assessed as dissociation constant by DiscoverX kinomescan method
The target in assay [10] is T2, Bromodomain-containing protein 4. Kind of assay: Inhibition of his 6 tagged BRD4 D1 (unknown origin) expressed in Escherichia coli BL21 (DE3) by fluorescence anisotropy assay.
The nature of assay [11]: Inhibition of BRD BD1 (unknown origin) by alpha screen assay. Details: species or system Homo sapiens. A general note: Bead proximity is the source of the signal in Alpha formats.
The species named for assay [12] is Homo sapiens. Kind of assay: Selectivity ratio of IC50 for BRD BD1 (unknown origin) to IC50 for BRD BD2 (unknown origin).
Assay [13] in a line: Inhibition of BRD BD2 (unknown origin) by alpha screen assay. Also on record: species or system Homo sapiens.

T1 sequence (P25440 whole entry): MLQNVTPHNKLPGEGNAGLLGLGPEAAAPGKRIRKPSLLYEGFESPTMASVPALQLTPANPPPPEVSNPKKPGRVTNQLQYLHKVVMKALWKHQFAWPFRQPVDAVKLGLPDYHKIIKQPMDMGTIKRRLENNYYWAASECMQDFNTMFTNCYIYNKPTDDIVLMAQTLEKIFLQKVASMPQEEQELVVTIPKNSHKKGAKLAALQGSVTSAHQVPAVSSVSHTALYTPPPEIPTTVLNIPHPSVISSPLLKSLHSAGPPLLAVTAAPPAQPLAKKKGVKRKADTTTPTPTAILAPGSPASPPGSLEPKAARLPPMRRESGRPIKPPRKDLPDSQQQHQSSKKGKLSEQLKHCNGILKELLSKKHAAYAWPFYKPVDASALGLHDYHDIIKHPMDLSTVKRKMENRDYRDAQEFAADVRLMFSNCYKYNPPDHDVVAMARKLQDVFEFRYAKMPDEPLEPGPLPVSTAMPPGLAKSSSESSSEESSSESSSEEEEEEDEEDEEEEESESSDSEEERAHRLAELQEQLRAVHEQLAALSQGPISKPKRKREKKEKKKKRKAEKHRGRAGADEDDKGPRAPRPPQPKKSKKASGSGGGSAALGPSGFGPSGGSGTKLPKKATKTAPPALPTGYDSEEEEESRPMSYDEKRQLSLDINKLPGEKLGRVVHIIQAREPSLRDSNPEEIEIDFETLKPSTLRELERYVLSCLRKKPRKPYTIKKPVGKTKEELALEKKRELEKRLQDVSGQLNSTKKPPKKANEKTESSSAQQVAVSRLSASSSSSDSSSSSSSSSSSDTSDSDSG
Chain of Mitogen-activated protein kinase 14 (Q16539 whole entry): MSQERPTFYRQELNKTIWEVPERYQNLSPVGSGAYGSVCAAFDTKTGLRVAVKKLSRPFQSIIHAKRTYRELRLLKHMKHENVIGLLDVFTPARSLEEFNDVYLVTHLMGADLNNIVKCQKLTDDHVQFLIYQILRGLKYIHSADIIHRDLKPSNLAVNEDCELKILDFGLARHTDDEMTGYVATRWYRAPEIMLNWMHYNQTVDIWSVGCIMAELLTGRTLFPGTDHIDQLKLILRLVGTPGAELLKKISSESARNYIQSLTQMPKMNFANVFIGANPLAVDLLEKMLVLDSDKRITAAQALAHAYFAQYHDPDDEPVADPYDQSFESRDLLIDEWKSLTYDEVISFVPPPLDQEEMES

The term Kd denotes the equilibrium constant for the complex coming apart. As to `CC(=O)N1c2ccc(-c3cc[nH]n3)cc2[C@H](Nc2ccc(C#N)cc2)C[C@@H]1C`, the Kd in assay [1] came out at 6 nM; in [4], 490 nM. For the same molecule, the Ratio in the assay listed under Homo sapiens [2] came to 80; in the assay filed under Homo sapiens [3], 152.

By Ki is commonly meant the dissociation constant of the complex between target and ligand, obtained from inhibition or displacement. As for `COc1ccc(NC(=O)c2ccc(NC3=C(C)C(=O)CC3)c(Cl)c2)cc1`, the Ratio Ki in the assay listed under Homo sapiens [5] turned out to be 9. The Ki stood at 718 nM in assay [6] and 77 nM in assay [7].

The IC50 is the concentration that inhibits the measured activity by half. Turning to `Cc1cc(C)cc(Oc2nccc(-c3c(-c4ccc(C(F)(F)F)cc4)ncn3C3CCN(CCN)CC3)n2)c1`, the Ratio IC50 in the assay filed under Homo sapiens [8] is 9. The affinity in assay [9], expressed as Kd, was 1900 nM. Also, half-maximal inhibition in assay [10] (IC50) was put at 130 nM.

In the case of `COc1cc(OC)c2c(=O)[nH]c(-c3cc(C)c(OCCN4CCCC4)c(C)c3)nc2c1`, the IC50 came out at 1160 nM in assay [11] and 20 nM in [13]. Also, the Ratio IC50 in the assay listed under Homo sapiens [12] came out at 40.

`COC(=O)c1ccc(N[C@@H]2C[C@H](C)N(C(C)=O)c3ccc(-c4cccc(NC(C)=O)c4)cc32)cc1`: the values for the Kd in assay [1] and in assay [4] were 14 nM and 931 nM, respectively. In the assay filed under Homo sapiens [2], the Ratio worked out at 67.

The values above are taken from ChEMBL document CHEMBL5241103, “Progress in the development of domain selective inhibitors of the bromo and extra terminal domain family (BET) proteins” (Eur J Med Chem, 2021).
